Columns and labels:
Human ACC1 = molecular target: T1, Human ACC1 (Homo sapiens, UniProt Q13085); test: In vitro enzymatic ACC activity assay (malachite green), ACC1; assay type: biochemical; conditions: recombinant His-tagged enzyme, absorbance at 620 nm
T1 construct: made in house; host or cells: SF-9 insect cells (baculovirus, pFAST-BacHTc)
Description: (§1) Provided in Example A is an in vitro enzymatic ACC activity assay for activity against ACC. The binding affinity of the test compound to ACC1 or ACC2 is determined by the changes in absorbance (at 620 nm); […]. It should be noted that a variety of other expression systems and hosts are also suitable for the expression of ACC, as would be readily appreciated by one of skill in the art.
Human ACC1 cDNA was amplified from human liver cDNA by polymerase chain reaction using primers; 5′[…]3′ (SEQ ID NO: 1) and 5′[…]3′ (SEQ ID NO: 2). The amplified DNA fragment was digested by restriction enzyme SalI and NotI, and cloned into pFAST-BacHTc (Invitrogen). This plasmid DNA was used for preparation of recombinant vaculovirus with BAC-TO-BAC Baculovirus Expression System (Invitrogen).
SF-9 cells were infected with the vaculovirus and cultured at 27° C. for 3 days. Harvested cells were homogenized in buffer A (25 mM HEPES (pH7.5), 130 mM NaCl, 1 mM EDTA, 25 mM sodium glycerophosphate, 1 mM sodium orthovanadate, 10% glycerol, complete protease inhibitor), and subjected to ultracentrifuge at 185700×g for 50 min at 4° C. ACC1 protein with 6×His-tag at the N-terminal was purified from the supernatant using Ni-NTA Super Flow Gel (QIAGEN). Eluted protein was dialysed against buffer B (50 mM HEPES (pH 7.5), 300 mM NaCl, 10 mM MgCl2, 10 mM tripotassium citrate, 2 mM dithiothreitol) and concentrated using Vivaspin20 ultrafiltration tube (Sartorius).
(§2) Malachite green solution was prepared by mixing 100 mL of solution A (0.12% malachite green in 5NH2SO4), 25 mL of solution B (7.5% ammonium molybdate) and 2 mL of solution C (11% TWEEN-20).
(§3) ACC1 was diluted to 8 μg/mL in reaction buffer (50 mM HEPES pH7.5, 10 mM MgCl2, 10 mM tripotassium citrate, 2 mM DTT, 0.75 mg/mL fatty acid free BSA) and 10 μL diluted enzyme solution was pored into each well of 384-well clear bottom plate. Test compound was diluted in the reaction buffer and 5 μL of the compound solution was added into each well, and the mixture was incubated at 30° C. for 60 minutes. Reaction was initiated by addition of 5 μL substrate solution (50 mM KHCO3, 200 μM ATP, 200 μM acetyl-CoA). After incubation at 30° C. for 20 minutes, reaction was terminated by addition of 5 μL malachite green solution and absorbance at 620 nm was measured.
(§4) Percent activity at each concentration of compound was calculated from the following equation: […]
(§5) Data were subjected to nonlinear regression analysis using GraphPad Prism Software (GraphPad Software Inc.) to obtain IC50 values.

Human ACC2 = molecular target: T2, Human ACC2 (Homo sapiens, UniProt O00763); test: In vitro enzymatic ACC activity assay (malachite green), ACC2; assay type: biochemical; conditions: recombinant His-tagged enzyme, absorbance at 620 nm
T2 construct: made in house; host or cells: SF-9 insect cells (baculovirus, pFAST-BacHTa)
Description: as §1
Human ACC2 cDNA except coding region for mitochondria localization sequence was amplified from human skeletal muscle cDNA by polymerase chain reaction using primers; 5′[…]3′ (SEQ ID NO: 3) and 5′[…]3′ (SEQ ID NO: 4). The amplified DNA fragment was digested by SalI and AflII, and cloned into pFAST-BacHTa (Invitrogen). Preparation of recombinant vaculovirus, infection of the virus to SF-9 cells and purification of recombinant ACC2 protein with 6×His-tag at the N-terminal were performed in the same method as described above.
as §2, §3
ACC2 was diluted to 6.4 μg/mL in reaction buffer, and the activity was measured by the same method as described for ACC1.
as §4, §5

T2 sequence (O00763 117-2458 limits assumed): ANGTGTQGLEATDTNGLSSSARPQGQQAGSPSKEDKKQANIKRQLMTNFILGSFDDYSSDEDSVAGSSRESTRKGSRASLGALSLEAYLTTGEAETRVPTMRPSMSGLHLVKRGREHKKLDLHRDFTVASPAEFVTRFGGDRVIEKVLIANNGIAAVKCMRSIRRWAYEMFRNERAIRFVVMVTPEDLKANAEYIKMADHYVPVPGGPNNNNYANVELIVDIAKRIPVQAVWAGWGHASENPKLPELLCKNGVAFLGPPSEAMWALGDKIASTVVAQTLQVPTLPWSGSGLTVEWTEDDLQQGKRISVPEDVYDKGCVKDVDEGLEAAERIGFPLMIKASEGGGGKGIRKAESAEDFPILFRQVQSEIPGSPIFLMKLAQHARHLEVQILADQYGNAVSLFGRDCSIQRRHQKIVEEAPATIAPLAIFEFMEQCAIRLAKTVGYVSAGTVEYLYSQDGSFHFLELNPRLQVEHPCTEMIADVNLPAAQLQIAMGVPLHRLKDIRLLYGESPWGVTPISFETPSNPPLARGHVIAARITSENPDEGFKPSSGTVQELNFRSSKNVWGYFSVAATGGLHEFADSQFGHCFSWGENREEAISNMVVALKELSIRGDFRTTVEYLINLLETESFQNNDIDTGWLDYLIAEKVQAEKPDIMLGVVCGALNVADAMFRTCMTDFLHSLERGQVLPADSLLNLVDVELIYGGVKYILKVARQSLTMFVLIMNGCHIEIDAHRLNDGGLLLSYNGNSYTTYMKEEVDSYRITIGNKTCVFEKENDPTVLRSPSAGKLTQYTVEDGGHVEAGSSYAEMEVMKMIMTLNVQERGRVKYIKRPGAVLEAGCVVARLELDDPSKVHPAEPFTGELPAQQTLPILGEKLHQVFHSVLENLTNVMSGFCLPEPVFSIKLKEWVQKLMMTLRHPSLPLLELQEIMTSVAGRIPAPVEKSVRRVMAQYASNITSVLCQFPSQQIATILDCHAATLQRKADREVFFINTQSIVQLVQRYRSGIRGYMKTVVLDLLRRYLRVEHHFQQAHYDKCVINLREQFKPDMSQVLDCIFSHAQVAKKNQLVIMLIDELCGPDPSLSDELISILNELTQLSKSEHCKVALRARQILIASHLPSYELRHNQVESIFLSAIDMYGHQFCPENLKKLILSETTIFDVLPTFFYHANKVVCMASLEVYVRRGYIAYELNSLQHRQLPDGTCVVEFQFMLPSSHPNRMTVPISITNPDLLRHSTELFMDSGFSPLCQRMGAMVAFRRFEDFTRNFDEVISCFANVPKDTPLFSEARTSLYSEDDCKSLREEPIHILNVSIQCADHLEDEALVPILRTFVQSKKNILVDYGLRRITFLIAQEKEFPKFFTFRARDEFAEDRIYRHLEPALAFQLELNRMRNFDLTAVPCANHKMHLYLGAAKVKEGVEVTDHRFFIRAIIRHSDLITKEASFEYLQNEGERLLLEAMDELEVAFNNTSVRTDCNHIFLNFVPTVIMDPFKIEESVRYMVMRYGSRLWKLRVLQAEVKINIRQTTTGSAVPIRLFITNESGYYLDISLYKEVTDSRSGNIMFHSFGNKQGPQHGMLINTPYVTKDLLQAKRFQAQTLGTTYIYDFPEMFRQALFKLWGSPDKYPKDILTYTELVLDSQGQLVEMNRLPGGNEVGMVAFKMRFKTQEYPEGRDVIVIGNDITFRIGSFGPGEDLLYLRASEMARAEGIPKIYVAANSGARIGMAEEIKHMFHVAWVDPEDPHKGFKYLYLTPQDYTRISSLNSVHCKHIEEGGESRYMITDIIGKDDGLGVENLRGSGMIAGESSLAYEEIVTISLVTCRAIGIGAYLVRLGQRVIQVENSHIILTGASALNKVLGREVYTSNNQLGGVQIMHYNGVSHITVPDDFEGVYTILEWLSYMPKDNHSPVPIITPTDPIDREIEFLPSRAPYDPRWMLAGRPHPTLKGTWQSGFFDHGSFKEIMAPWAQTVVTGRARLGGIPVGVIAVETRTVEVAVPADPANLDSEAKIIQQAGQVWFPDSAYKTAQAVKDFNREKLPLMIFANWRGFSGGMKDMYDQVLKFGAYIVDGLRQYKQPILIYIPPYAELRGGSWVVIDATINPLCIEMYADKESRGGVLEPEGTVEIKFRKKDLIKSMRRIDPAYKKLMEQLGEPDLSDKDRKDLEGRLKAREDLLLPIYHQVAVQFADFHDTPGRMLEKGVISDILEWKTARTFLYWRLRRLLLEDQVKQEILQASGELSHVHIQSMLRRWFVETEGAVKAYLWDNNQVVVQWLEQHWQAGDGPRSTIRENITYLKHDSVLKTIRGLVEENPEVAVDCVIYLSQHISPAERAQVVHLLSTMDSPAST

Row | SMILES | IC50 (Human ACC1) | IC50 (Human ACC2)
1 | CCNC(=O)Nc1sc2ccccc2c1C(=O)N1CCN(S(=O)(=O)c2ccccc2C#N)CC1 [Example 2, 1-(3-(4-(2-cyanophenylsulfonyl)piperazine-1-carbonyl)benzo[b]thiophen-2-yl)-3-ethylurea] | > 50 µM | > 50 µM
2 | CCNC(=O)Nc1sc2ccccc2c1C(=O)N1CCN(S(=O)(=O)c2ccccc2)CC1 [Example 3, ethyl-3-(3-(4-(phenylsulfonyl)piperazine-1-carbonyl)benzo[b]thiophen-2-yl)urea] | > 50 µM | > 50 µM
3 | CCNC(=O)Nc1sc2ccccc2c1C(=O)N1CCN(S(=O)(=O)c2ccc3c(c2)OCO3)CC1 [Example 4, 1-(3-(4-(benzo[d][1,3]dioxol-5-ylsulfonyl)piperazine-1-carbonyl)benzo[b]thiophen-2-yl)-3-ethylurea] | > 50 µM | 5 to 50 µM
4 | CCNC(=O)Nc1sc2ccccc2c1C(=O)N1CCN(S(=O)(=O)c2cccc(S(C)(=O)=O)c2)CC1 [Example 5, ethyl-3-(3-(4-(3-(methylsulfonyl)phenylsulfonyl)piperazine-1-carbonyl)benzo[b]thiophen-2-yl)urea] | 5 to 50 µM | 5 to 50 µM
5 | CCNC(=O)Nc1sc2ccccc2c1C(=O)N1CCN(S(=O)(=O)c2ccc3nsnc3c2)CC1 [Example 6, 1-(3-(4-(benzo[c][1,2,5]thiadiazol-5-ylsulfonyl)piperazine-1-carbonyl)benzo[b]thiophen-2-yl)-3-ethylurea] | > 50 µM | > 50 µM
6 | CCNC(=O)Nc1sc2ccccc2c1C(=O)N1CCN(S(=O)(=O)c2cccc(OC)c2)CC1 [Example 7, ethyl-3-(3-(4-(3-methoxyphenylsulfonyl)piperazine-1-carbonyl)benzo[b]thiophen-2-yl)urea] | > 50 µM | < 5 µM
7 | CCNC(=O)Nc1sc2ccccc2c1C(=O)N1CCN(S(=O)(=O)c2cccc(NC(C)=O)c2)CC1 [Example 8, N-(3-(4-(2-(3-ethylureido)benzo[b]thiophene-3-carbonyl)piperazin-1-ylsulfonyl)phenyl)acetamide] | 5 to 50 µM | < 5 µM
8 | CCNC(=O)Nc1sc2ccccc2c1C(=O)N1CCN(S(=O)(=O)c2ccc(Cl)c(S(N)(=O)=O)c2)CC1 [Example 9, 2-chloro-5-(4-(2-(3-ethylureido)benzo[b]thiophene-3-carbonyl)piperazin-1-ylsulfonyl)benzenesulfonamide] | < 5 µM | < 5 µM
9 | CCNC(=O)Nc1sc2ccccc2c1C(=O)N1CCN(S(=O)(=O)c2cccc(-c3csc(C)n3)c2)CC1 [Example 10, ethyl-3-(3-(4-(3-(2-methylthiazol-4-yl)phenylsulfonyl)piperazine-1-carbonyl)benzo[b]thiophen-2-yl)urea] | > 50 µM | 5 to 50 µM
10 | CCNC(=O)Nc1sc2ccccc2c1C(=O)N1CCN(S(=O)(=O)c2cccc(-c3nnc(C)o3)c2)CC1 [Example 11, ethyl-3-(3-(4-(3-(5-methyl-1,3,4-oxadiazol-2-yl)phenylsulfonyl)piperazine-1-carbonyl)benzo[b]thiophen-2-yl)urea] | 5 to 50 µM | 5 to 50 µM
11 | CCNC(=O)Nc1sc2ccccc2c1C(=O)N1CCN(S(=O)(=O)c2cccc(-c3ccnc(C)n3)c2)CC1 [Example 12, ethyl-3-(3-(4-(3-(2-methylpyrimidin-4-yl)phenylsulfonyl)piperazine-1-carbonyl)benzo[b]thiophen-2-yl)urea] | 5 to 50 µM | < 5 µM
12 | CCNC(=O)Nc1sc2ccccc2c1C(=O)N1CCN(S(=O)(=O)c2cccc(-c3noc(C)n3)c2)CC1 [Example 13, ethyl-3-(3-(4-(3-(5-methyl-1,2,4-oxadiazol-3-yl)phenylsulfonyl)piperazine-1-carbonyl)benzo[b]thiophen-2-yl)urea] | < 5 µM | < 5 µM
13 | CCNC(=O)Nc1sc2ccccc2c1C(=O)N1CCN(S(=O)(=O)c2ccc(N3CCOCC3)nc2)CC1 [Example 14, ethyl-3-(3-(4-(6-morpholinopyridin-3-ylsulfonyl)piperazine-1-carbonyl)benzo[b]thiophen-2-yl)urea] | < 5 µM | < 5 µM
14 | CCNC(=O)Nc1sc2ccccc2c1C(=O)N1CCN(S(=O)(=O)c2cccc(OC(F)(F)F)c2)CC1 [Example 15, ethyl-3-(3-(4-(3-(trifluoromethoxy)phenylsulfonyl)piperazine-1-carbonyl)benzo[f]thiophen-2-yl)urea] | > 50 µM | > 50 µM
15 | CCNC(=O)Nc1sc2ccccc2c1C(=O)N1CCN(S(=O)(=O)c2cccc([N+](=O)[O-])c2)CC1 [Example 16, ethyl-3-(3-(4-(3-nitrophenylsulfonyl)piperazine-1-carbonyl)benzo[b]thiophen-2-yl)urea] | > 50 µM | > 50 µM
16 | CCNC(=O)Nc1sc2ccccc2c1C(=O)N1CCN(S(=O)(=O)C2CCS(=O)(=O)C2)CC1 (stereo not drawn) [Example 17, ethyl-3-(3-(4-(1,1-dioxotetrahydrothiophen-3-ylsulfonyl)piperazine-1-carbonyl)benzo[b]thiophen-2-yl)urea] | 5 to 50 µM | 5 to 50 µM
17 | CCNC(=O)Nc1sc2ccccc2c1C(=O)N1CCN(S(=O)(=O)c2ccc3c(c2)OCCCO3)CC1 [Example 18, 1-(3-(4-(3,4-dihydro-2H-benzo[b][1,4]dioxepin-7-ylsulfonyl)piperazine-1-carbonyl)benzo[b]thiophen-2-yl)-3-ethylurea] | < 5 µM | < 5 µM
18 | CCNC(=O)Nc1sc2ccccc2c1C(=O)N1CCN(S(=O)(=O)c2ccc(OC)c(NC(C)=O)c2)CC1 [Example 19, N-(5-(4-(2-(3-ethylureido)benzo[b]thiophene-3-carbonyl)piperazin-1-ylsulfonyl)-2-methoxyphenyl)acetamide] | < 5 µM | < 5 µM
19 | CCNC(=O)Nc1sc2ccccc2c1C(=O)N1CCN(S(=O)(=O)c2cccc(C(C)=O)c2)CC1 [Example 20, 1-(3-(4-(3-acetylphenylsulfonyl)piperazine-1-carbonyl)benzo[b]thiophen-2-yl)-3-ethylurea] | < 5 µM | < 5 µM
20 | CCNC(=O)Nc1sc2ccccc2c1C(=O)N1CCN(S(=O)(=O)c2ccc3ncsc3c2)CC1 [Example 21, 1-(3-(4-(benzo[d]thiazol-6-ylsulfonyl)piperazine-1-carbonyl)benzo[b]thiophen-2-yl)-3-ethylurea] | < 5 µM | < 5 µM
21 | CCNC(=O)Nc1sc2ccccc2c1C(=O)N1CCN(S(=O)(=O)c2ccc(N3CCCC3=O)cc2)CC1 [Example 22, ethyl-3-(3-(4-(4-(2-oxopyrrolidin-1-yl)phenylsulfonyl)piperazine-1-carbonyl)benzo[b]thiophen-2-yl)urea] | > 50 µM | < 5 µM
22 | CCNC(=O)Nc1sc2ccccc2c1C(=O)N1CCN(S(=O)(=O)c2ccc(OC)c(OC)c2)CC1 [Example 23, 1-(3-(4-(3,4-dimethoxyphenylsulfonyl)piperazine-1-carbonyl)benzo[b]thiophen-2-yl)-3-ethylurea] | < 5 µM | < 5 µM
23 | CCNC(=O)Nc1sc2ccccc2c1C(=O)N1CCN(S(=O)(=O)c2ccc(NC(C)=O)cc2)CC1 [Example 24, N-(4-(4-(2-(3-ethylureido)benzo[b]thiophene-3-carbonyl)piperazin-1-ylsulfonyl)phenyl)acetamide] | < 5 µM | < 5 µM
24 | CCNC(=O)Nc1sc2ccccc2c1C(=O)N1CCN(S(=O)(=O)CCC(=O)OCC)CC1 [Example 25, Ethyl 3-(4-(2-(3-ethylureido)benzo[b]thiophene-3-carbonyl)piperazin-1-ylsulfonyl)propanoate] | 5 to 50 µM | 5 to 50 µM

From patent US20090005375A1, “ACETYL COENZYME A CARBOXYLASE INHIBITORS” (priority 2007, published 2009)
